Source: the NIST ThermoML archive (doi:10.1016/j.jct.2015.01.004)
Several values for one entry are separate records, joined by “and”; a condition that tells them apart may be missing. Equal values may be shown once.

Experiment: molar heat capacity at constant pressure; xn = mol fraction of the nth substance listed
Conditions: 100 kPa

[Si] [silicon] + [Li]
Conditions | molar heat capacity at constant pressure
12.56 K, Crystal of intercomponent compound 2, relaxation calorimeter, x2 = 0.804 | 0.0482 J/K/mol and 0.0474 J/K/mol
13.23 K, Crystal of intercomponent compound 1, relaxation calorimetry, x2 = 0.81 | 0.0671 J/K/mol
13.23 K, Crystal of intercomponent compound 2, relaxation calorimeter, x2 = 0.804 | 0.0553 J/K/mol
13.24 K, Crystal of intercomponent compound 2, relaxation calorimeter, x2 = 0.804 | 0.0547 J/K/mol
13.94 K, Crystal of intercomponent compound 1, relaxation calorimetry, x2 = 0.81 | 0.0741 J/K/mol
13.94 K, Crystal of intercomponent compound 2, relaxation calorimeter, x2 = 0.804 | 0.0639 J/K/mol
13.95 K, Crystal of intercomponent compound 2, relaxation calorimeter, x2 = 0.804 | 0.0628 J/K/mol
14.69 K, Crystal of intercomponent compound 1, relaxation calorimetry, x2 = 0.81 | 0.083 J/K/mol
14.69 K, Crystal of intercomponent compound 2, relaxation calorimeter, x2 = 0.804 | 0.0753 J/K/mol and 0.0743 J/K/mol
15 K, Crystal of intercomponent compound 1, relaxation calorimetry + DSC, x2 = 0.81 | 0.0895 J/K/mol
15 K, Crystal of intercomponent compound 2, relaxation calorimetry + DSC, x2 = 0.804 | 0.0803 J/K/mol
15.47 K, Crystal of intercomponent compound 1, relaxation calorimetry, x2 = 0.81 | 0.094 J/K/mol
15.47 K, Crystal of intercomponent compound 2, relaxation calorimeter, x2 = 0.804 | 0.0889 J/K/mol
15.48 K, Crystal of intercomponent compound 2, relaxation calorimeter, x2 = 0.804 | 0.0879 J/K/mol
16.3 K, Crystal of intercomponent compound 1, relaxation calorimetry, x2 = 0.81 | 0.1071 J/K/mol
16.3 K, Crystal of intercomponent compound 2, relaxation calorimeter, x2 = 0.804 | 0.1049 J/K/mol
16.31 K, Crystal of intercomponent compound 2, relaxation calorimeter, x2 = 0.804 | 0.1039 J/K/mol
17.17 K, Crystal of intercomponent compound 1, relaxation calorimetry, x2 = 0.81 | 0.1224 J/K/mol
17.18 K, Crystal of intercomponent compound 2, relaxation calorimeter, x2 = 0.804 | 0.1233 J/K/mol and 0.1231 J/K/mol
18.09 K, Crystal of intercomponent compound 1, relaxation calorimetry, x2 = 0.81 | 0.1403 J/K/mol
18.09 K, Crystal of intercomponent compound 2, relaxation calorimeter, x2 = 0.804 | 0.1454 J/K/mol
18.1 K, Crystal of intercomponent compound 2, relaxation calorimeter, x2 = 0.804 | 0.1461 J/K/mol
19.06 K, Crystal of intercomponent compound 1, relaxation calorimetry, x2 = 0.81 | 0.1618 J/K/mol
19.07 K, Crystal of intercomponent compound 2, relaxation calorimeter, x2 = 0.804 | 0.1725 J/K/mol and 0.1731 J/K/mol
20 K, Crystal of intercomponent compound 1, relaxation calorimetry + DSC, x2 = 0.81 | 0.184 J/K/mol
20 K, Crystal of intercomponent compound 2, relaxation calorimetry + DSC, x2 = 0.804 | 0.201 J/K/mol
20.09 K, Crystal of intercomponent compound 1, relaxation calorimetry, x2 = 0.81 | 0.187 J/K/mol
20.09 K, Crystal of intercomponent compound 2, relaxation calorimeter, x2 = 0.804 | 0.205 J/K/mol
20.1 K, Crystal of intercomponent compound 2, relaxation calorimeter, x2 = 0.804 | 0.203 J/K/mol
21.16 K, Crystal of intercomponent compound 1, relaxation calorimetry, x2 = 0.81 | 0.219 J/K/mol
21.16 K, Crystal of intercomponent compound 2, relaxation calorimeter, x2 = 0.804 | 0.24 J/K/mol
21.17 K, Crystal of intercomponent compound 2, relaxation calorimeter, x2 = 0.804 | 0.242 J/K/mol
22.28 K, Crystal of intercomponent compound 1, relaxation calorimetry, x2 = 0.81 | 0.255 J/K/mol
22.3 K, Crystal of intercomponent compound 2, relaxation calorimeter, x2 = 0.804 | 0.283 J/K/mol and 0.286 J/K/mol
23.49 K, Crystal of intercomponent compound 2, relaxation calorimeter, x2 = 0.804 | 0.333 J/K/mol and 0.337 J/K/mol
23.51 K, Crystal of intercomponent compound 1, relaxation calorimetry, x2 = 0.81 | 0.297 J/K/mol
24.74 K, Crystal of intercomponent compound 1, relaxation calorimetry, x2 = 0.81 | 0.331 J/K/mol
24.75 K, Crystal of intercomponent compound 2, relaxation calorimeter, x2 = 0.804 | 0.391 J/K/mol and 0.396 J/K/mol
25 K, Crystal of intercomponent compound 1, relaxation calorimetry + DSC, x2 = 0.81 | 0.347 J/K/mol
25 K, Crystal of intercomponent compound 2, relaxation calorimetry + DSC, x2 = 0.804 | 0.403 J/K/mol
26.07 K, Crystal of intercomponent compound 2, relaxation calorimeter, x2 = 0.804 | 0.458 J/K/mol and 0.454 J/K/mol
26.08 K, Crystal of intercomponent compound 1, relaxation calorimetry, x2 = 0.81 | 0.39 J/K/mol
27.47 K, Crystal of intercomponent compound 2, relaxation calorimeter, x2 = 0.804 | 0.534 J/K/mol
27.48 K, Crystal of intercomponent compound 1, relaxation calorimetry, x2 = 0.81 | 0.457 J/K/mol
27.48 K, Crystal of intercomponent compound 2, relaxation calorimeter, x2 = 0.804 | 0.531 J/K/mol
28.94 K, Crystal of intercomponent compound 2, relaxation calorimeter, x2 = 0.804 | 0.623 J/K/mol
28.95 K, Crystal of intercomponent compound 1, relaxation calorimetry, x2 = 0.81 | 0.534 J/K/mol
28.95 K, Crystal of intercomponent compound 2, relaxation calorimeter, x2 = 0.804 | 0.619 J/K/mol
30 K, Crystal of intercomponent compound 1, relaxation calorimetry + DSC, x2 = 0.81 | 0.596 J/K/mol
30 K, Crystal of intercomponent compound 2, relaxation calorimetry + DSC, x2 = 0.804 | 0.689 J/K/mol
30.48 K, Crystal of intercomponent compound 2, relaxation calorimeter, x2 = 0.804 | 0.723 J/K/mol
30.49 K, Crystal of intercomponent compound 1, relaxation calorimetry, x2 = 0.81 | 0.625 J/K/mol
30.5 K, Crystal of intercomponent compound 2, relaxation calorimeter, x2 = 0.804 | 0.718 J/K/mol
32.11 K, Crystal of intercomponent compound 2, relaxation calorimeter, x2 = 0.804 | 0.835 J/K/mol
32.12 K, Crystal of intercomponent compound 1, relaxation calorimetry, x2 = 0.81 | 0.728 J/K/mol
32.12 K, Crystal of intercomponent compound 2, relaxation calorimeter, x2 = 0.804 | 0.832 J/K/mol
33.83 K, Crystal of intercomponent compound 2, relaxation calorimeter, x2 = 0.804 | 0.964 J/K/mol
33.84 K, Crystal of intercomponent compound 1, relaxation calorimetry, x2 = 0.81 | 0.848 J/K/mol
33.84 K, Crystal of intercomponent compound 2, relaxation calorimeter, x2 = 0.804 | 0.961 J/K/mol
35 K, Crystal of intercomponent compound 1, relaxation calorimetry + DSC, x2 = 0.81 | 0.934 J/K/mol
35 K, Crystal of intercomponent compound 2, relaxation calorimetry + DSC, x2 = 0.804 | 1.056 J/K/mol
35.64 K, Crystal of intercomponent compound 2, relaxation calorimeter, x2 = 0.804 | 1.113 J/K/mol
35.65 K, Crystal of intercomponent compound 2, relaxation calorimeter, x2 = 0.804 | 1.109 J/K/mol
35.66 K, Crystal of intercomponent compound 1, relaxation calorimetry, x2 = 0.81 | 0.987 J/K/mol
37.54 K, Crystal of intercomponent compound 2, relaxation calorimeter, x2 = 0.804 | 1.278 J/K/mol
37.56 K, Crystal of intercomponent compound 1, relaxation calorimetry, x2 = 0.81 | 1.143 J/K/mol
37.56 K, Crystal of intercomponent compound 2, relaxation calorimeter, x2 = 0.804 | 1.272 J/K/mol
39.55 K, Crystal of intercomponent compound 2, relaxation calorimeter, x2 = 0.804 | 1.458 J/K/mol
39.56 K, Crystal of intercomponent compound 1, relaxation calorimetry, x2 = 0.81 | 1.315 J/K/mol
39.57 K, Crystal of intercomponent compound 2, relaxation calorimeter, x2 = 0.804 | 1.455 J/K/mol
40 K, Crystal of intercomponent compound 1, relaxation calorimetry + DSC, x2 = 0.81 | 1.35 J/K/mol
40 K, Crystal of intercomponent compound 2, relaxation calorimetry + DSC, x2 = 0.804 | 1.5 J/K/mol
41.66 K, Crystal of intercomponent compound 2, relaxation calorimeter, x2 = 0.804 | 1.664 J/K/mol
41.67 K, Crystal of intercomponent compound 1, relaxation calorimetry, x2 = 0.81 | 1.513 J/K/mol
41.68 K, Crystal of intercomponent compound 2, relaxation calorimeter, x2 = 0.804 | 1.659 J/K/mol
43.88 K, Crystal of intercomponent compound 1, relaxation calorimetry, x2 = 0.81 | 1.731 J/K/mol
43.89 K, Crystal of intercomponent compound 2, relaxation calorimeter, x2 = 0.804 | 1.888 J/K/mol
43.9 K, Crystal of intercomponent compound 2, relaxation calorimeter, x2 = 0.804 | 1.888 J/K/mol
45 K, Crystal of intercomponent compound 1, relaxation calorimetry + DSC, x2 = 0.81 | 1.85 J/K/mol
45 K, Crystal of intercomponent compound 2, relaxation calorimetry + DSC, x2 = 0.804 | 2.01 J/K/mol
46.22 K, Crystal of intercomponent compound 1, relaxation calorimetry, x2 = 0.81 | 1.98 J/K/mol
